For 4 compounds, IC50 results are on record in paper PMC12645998, “Optimization of VE607 to generate analogs with improved neutralization activities against SARS-CoV-2 variants” (Journal of Virology, 2025).

The term IC50 denotes the concentration that inhibits the measured activity by half.

The first assay concerns pseudoviral particles carrying SARS-CoV-1 S. Briefly: microbe, parasite or virus in culture. Format: cell-based. The following applies: Severe acute respiratory syndrome coronavirus, 293T/ACE2, read-out: IC50 SARS-CoV-1.
Take `O[C@@H](COc1cc(Br)cc(OC[C@H](O)CN2CCCCC2)c1)CN1CCCCC1` [Compound 26]: the IC50 was 381 nM.
Same read-out and setting: the result for `CNC[C@@H](O)COc1cc(Br)cc(OC[C@H](O)CNC)c1` [Compound 41] reads 310 nM; that for `CCN(C)C[C@@H](O)COc1cccc(F)c1` [Compound 57], 6170 nM; that for `O[C@H](CNC1CCOCC1)COc1cc(Br)cc(OC[C@H](O)CNC2CCOCC2)c1` [Compound 40], 600 nM.

The subject of a further assay is pseudoviral particles carrying VSV-G. Nature of the assay: microbe, parasite or virus in culture. Format: cell-based. The following applies: Vesicular stomatitis virus, 293T/ACE2, read-out: IC50 VSV-G.
As to `O[C@@H](COc1cc(Br)cc(OC[C@H](O)CN2CCCCC2)c1)CN1CCCCC1` [Compound 26], the IC50 worked out at 2390 nM.
Still for that read-out and setting: the result for `CNC[C@@H](O)COc1cc(Br)cc(OC[C@H](O)CNC)c1` [Compound 41] reads over 100000 nM; that for `CCN(C)C[C@@H](O)COc1cccc(F)c1` [Compound 57], over 100000 nM.
`O[C@H](CNC1CCOCC1)COc1cc(Br)cc(OC[C@H](O)CNC2CCOCC2)c1` [Compound 40]: the IC50 is over 100000 nM.

The subject of a further assay is pseudoviral particles bearing the Spike glycoprotein from SARS-CoV-2. Nature of the assay: microbe, parasite or virus in culture. Format: cell-based. The following applies: Severe acute respiratory syndrome coronavirus 2, 293T/ACE2, read-out: IC50 SARS-CoV-2, Table 1; pseudovirus, 293T-ACE2 cells, compounds up to 100 µM.
Take `O[C@@H](COc1cc(Br)cc(OC[C@H](O)CN2CCCCC2)c1)CN1CCCCC1` [Compound 26]: the IC50 turned out to be 440 nM.
On the same count and under the same terms, the result for `CNC[C@@H](O)COc1cc(Br)cc(OC[C@H](O)CNC)c1` [Compound 41] reads 1170 nM; that for `CCN(C)C[C@@H](O)COc1cccc(F)c1` [Compound 57], over 100000 nM.
The same measure, in the same setting: the result for `O[C@H](CNC1CCOCC1)COc1cc(Br)cc(OC[C@H](O)CNC2CCOCC2)c1` [Compound 40] reads 3630 nM.

Still in this assay, the particulars now being: read-out: IC50 SARS-CoV-2; Table 1; pseudovirus, 293T-ACE2 cells, compounds up to 100 µM.
Take `O[C@@H](COc1cc(Br)cc(OC[C@H](O)CN2CCCCC2)c1)CN1CCCCC1` [Compound 26]: the IC50 turned out to be 443 nM.
